# Reference: article PMC11189555, “Aryl amino acetamides prevent Plasmodium falciparum ring development via targeting the lipid-transfer protein PfSTART1” (Nature Communications, 2024)
# What was measured:
# [1] = tested on: signal recognition particle subunit (SRP19, PF3D7_1216300); assay: Solvent-PISA (solvent proteome profiling, DIA-MS); assay type: binding, Plasmodium falciparum; details: 100 µM W-991 vs DMSO; 7-25% AEF
# Procedure: The experiment was carried out in three biological replicates. Saponin-liberated mature parasite stages (30-42 hpi) were resuspended in PBS and lysed by 3x flash freeze/thawing using liquid N2, followed by 10 x mechanical sheering with a 29 G needle-syringe, and soluble protein isolation through ultracentrifugation (100,000 g; 20 min, 4 °C). Protein lysate was exposed to the 100 µM of W-991 or the vehicle control (DMSO) for 3 min and subsequently incubated with varying concentration of the solvent mixture ‘AEF’ (50% Acetone, 50% Ethanol, 0.1% Formate) to a final concentration of 7-25% (v/v) with 2% intervals, for 20 min at 37 °C at 800 rpm on a Thermomixer (Eppendorf). Denatured protein was pelleted through centrifugation (4 °C, 18,000 g, 20 min), and the soluble phase was recovered and pulled together in equivolume ratios into two samples; Gradient 1 ‘G1’: 7-15% EAF and Gradient 2 ‘G2’: 17-25% EAF, respectively.
# Sample preparation for proteomic analysis was carried out using modified SP4 glass beads protocol. In brief, protein was reduced (20 mM TCEP, 100 mM TEAB) for 20 min at 55 °C and alkylated with 55 mM 2-Chloroacetamide for 30 min, followed by precipitation on beads in 80% ACN with a 6 min centrifugation at 21,000 g and 3 x wash with 80% Ethanol. Dried beads were subjected to sequential digestion with LysC (3 h, 1:50 ratio w/w) and trypsin (overnight, 1:50 ratio w/w), and the resulting digest was acidified with 1% TFA and desalted on T3 C18 stage tips (Affinisep) according to manufacturer’s specifications.
# Peptide samples were analysed on Orbitrap Eclipse Tribrid mass spectrometer that is interfaced with the Neo Vanquish liquid chromatography system. Samples were loaded onto a C18 fused silica column (inner diameter 75 µm, OD 360 µm × 15 cm length, 1.6 µm C18 beads) packed into an emitter tip (IonOpticks) using pressure-controlled loading with a maximum pressure of 1,500 bar, that is interfaced to the mass spectrometer using Easy nLC source and electro sprayed directly into the mass spectrometer. Sample separation was carried out on a linear gradient 5% to 17% of solvent-B at 400 nL /min flow rate (solvent-B: 80% (by vol) acetonitrile) for 23 min and 17% to 25% solvent-B for 10 min, 25% to 34% for 11 min and 34% to 90% solvent-B for 1 min which was maintained at 90% B for 3 min and washed the column at 2% solvent-B for another 3 min comprising a total of 63 min run with a 45 min gradient in a data independent acquisition (DIA) mode MS scan parameters included a full scan using an orbitrap and 120,000 resolution, standard AGC target and maximum injection time of 30 ms. A second DIA experiment used the orbitrap at […] resolution, a precursor scan range of 200-1200 m/z with a normalized AGC target of 3000% and 45 variable isolation windows. Peptides were isolated and fragmented using stepped […] (HCD) at 24%, 28% and 32% normalized collision energy. Peptide identification was carried out in DIA-NN 1.8.1 using standard settings and an in silico spectral library generated from Uniprot P. falciparum (UP000001450) and human (UP000005640) reference proteomes. The peptide length range was set to 7-30 amino acids. […] Subsequently, the differential abundance analysis (moderated t-test, based on limma package[81]) of P. falciparum proteins was conducted in the R environment (R version 4.2.0; R Studio Version 2023.12.1 + 402) using precursor normalised MaxLFQ data for proteins detected with ≥2 peptides. […]
# [2] = tested on: parasitophorous vacuole membrane of newly invaded merozoites; assay: Lattice light sheet imaging and vacuole tracking; assay type: cell-based, Plasmodium falciparum; details: 60 nM W-991 vs DMSO
# Procedure: Parasites were sorbitol synchronised at days 5 and 2 prior to filming. To prepare the parasites for filming, culture was loaded on LS columns attached to MACS MultiStand (Miltenyi Biotec) to isolate late-stage parasites. Imaging medium was prepared by adding 10 μM Trolox (Santa Cruz 53188-07-1) to the culture medium. To compare the effect of drug treatment on parasite invasion, either 60 nM of W-991 or an equivalent DMSO concentration was added to the imaging medium. RBCs were resuspended at 0.5% hematocrit in RPMI-HEPES supplemented with 0.2% sodium bicarbonate and stained with 1.5 μM Di-4-[…] (Invitrogen D36802) membrane marker for 1 h at 37 °C. The stained RBCs were then washed 3 x and resuspended in imaging medium. Purified schizonts were resuspended in culture medium and incubated with 25 nM Mitotracker Deep Red FM (Invitrogen M22426) for 30 min at 37 °C, 5% CO2. The stained schizonts were then pelleted and the supernatant removed before resuspending the schizonts in the imaging medium. Before imaging, imaging medium with drug was loaded to a well and imaging medium with DMSO control was loaded to another well on an 8-well glass bottom plate (Ibidi 80807). Stained RBCs and stained schizonts were then added to each well and let settle for 30 min. The imaging experiments were performed on Zeiss Lattice Lightsheet 7. […]
# P. berghei = details: at concentrations that are effective against P. falciparum; ref Nguyen et al. 2024; cited from earlier work
compound,measurement,setting,value
CC(C)(Nc1ccc(Cl)c(S(=O)(=O)N2CCOCC2)c1)C(=O)Nc1ccc(F)c(Cl)c1 [W-991],soluble protein level in the presence of compound (stabilisation),[1],drug-stabilised
same,shape/sphericity of the PVM of newly invaded merozoites,[2]; p = 0.045 at 15 min,remained spherical
same,mean vacuole surface area and volume of the PVM,"[2]; p = 0.109, p = 0.129",reduced in W-991 but this did not reach significance
same,effect on P. berghei parasitemia,P. berghei,does not reduce P. berghei parasitemia
